Molecular target: T1, β-secretase (BACE) (Homo sapiens, UniProt P56817)
T1 construct: purchased Panvera
Experiment: BACE FS1% Inhibition Assay (Example 160)
Format: biochemical
Protocol: The following reagents were used in this assay: sodium acetate, PEB8000 (Sigma), DMSO, HEPES, FS1 substrate [[…]], β-secretase (BACE) (Panvera), and 96-well plate (HE microplate, Molecular Devices). […] The FS1-substrate stock solution was prepared in DMSO as a 10 mg/mL solution. The FS1-substrate working solution was prepared by diluting the 10 mg/mL stock solution with substrate assay buffer to a final concentration of 300 μg/mL. The β-secretase (BACE) working solution was prepared by diluting a 0.83 mg/mL BACE stock solution with enzyme assay buffer to a final concentration of 4 μg/mL. Test compounds were dissolved in DMSO to 10 mM. […] The screening procedure for this assay was as follows: 15 μL of BACE working solution was pipetted into each well of a 96-well plate. To each well was the pipetted 2 μL of test compound at the selected concentration. Test compound and BACE were then mixed with a pipettor and incubated for 20 min at room temperature. To each well was then added 10 μL of the FS1 substrate working solution. The plates were then incubated for 1 hour at room temperature. […] The procedure for the blank was as follows. 15 μL of assay buffer was pipetted into each well to be used as a blank control. To each well was then added 2 μL of vehicle and 10 μL of FS1-substrate working solution. The plates were then incubated for 1 hour at room temperature. […] The procedure for the positive control was as follows: 15 μL of BACE working solution was pipetted into each well to be used as a positive control. To each well was then pipetted 2 μL of vehicle. Vehicle and BACE were then mixed with a pipettor and incubated for 20 min at room temperature. To each well was then added 10 μL of the FS1 substrate working solution. The plates were then incubated for 1 hour at room temperature. […] For test compounds, % inhibition was determined at each concentration as follows: [formula]

T1 sequence (P56817 46-501): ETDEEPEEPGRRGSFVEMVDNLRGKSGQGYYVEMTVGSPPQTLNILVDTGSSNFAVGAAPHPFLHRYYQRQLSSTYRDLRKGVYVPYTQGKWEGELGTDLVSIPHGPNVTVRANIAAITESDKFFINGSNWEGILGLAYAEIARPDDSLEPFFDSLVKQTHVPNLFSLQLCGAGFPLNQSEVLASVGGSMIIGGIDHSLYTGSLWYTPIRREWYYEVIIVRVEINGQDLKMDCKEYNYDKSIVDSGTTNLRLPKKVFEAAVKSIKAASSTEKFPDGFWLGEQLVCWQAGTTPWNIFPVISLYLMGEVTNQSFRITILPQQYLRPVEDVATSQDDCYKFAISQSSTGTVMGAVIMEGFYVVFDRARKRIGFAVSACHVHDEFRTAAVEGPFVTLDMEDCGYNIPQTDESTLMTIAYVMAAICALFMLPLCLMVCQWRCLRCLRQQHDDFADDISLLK

| % Inhibition (FS) (0.3 μM test compound) [%] | % Inhibition (FS) (1 μM test compound) [%] | % Inhibition (FS) (3 μM test compound) [%] | % Inhibition (FS) (0.3 μM test compound, 0.3 µM) [%] | % Inhibition (FS) (1 μM test compound, 1 µM) [%] | % Inhibition (FS) (3 μM test compound, 3 µM) [%] | SMILES |
| --- | --- | --- | --- | --- | --- | --- |
| 38 | 97 | – | – | – | – | COC(=O)C1CCCC(N(C)C(=O)CCC(C2CCCCC2)N2Cc3cc(Oc4ccccc4)ccc3N=C2N)C1 (mixture of isomers) [Compound 777] |
| <30 | 72 | 108 | – | – | – | CCCC(CCC)C(=O)NCC(C1CCCCC1)N1Cc2cc(Oc3ccccc3)ccc2N=C1N (stereo not shown) [Compound 302] |
| 114 | 118 | 125 | – | – | – | CC(C)[C@H](CNC(=O)C1CCCCC1)N1Cc2cc(Oc3ccccc3)ccc2N=C1N [Compound 561] |
| – | – | – | <30 | <30 | 48 | CN(C(=O)CCC(C1CCCCC1)N1Cc2cc(Oc3ccccc3)ccc2N=C1N)C1CCC(O)CC1 (stereo not shown) [Compound 639] |
| 68 | 98 | – | – | – | – | Cc1ccccc1-c1ccc2c(c1)CN(CCNC(=O)CCC(C)C)C(N)=N2 [Compound 661] |
| 37 | <30 | <30 | – | – | – | CCCC(=O)NCCN1Cc2cc(-c3ccc4ccccc4c3)ccc2N=C1N [Compound 666] |
| <30 | 30 | <30 | – | – | – | NC1=Nc2ccc(-c3cnc4ccccc4c3)cc2CN1CCNC(=O)C1CCCC1 [Compound 671] |
| <30 | <30 | <30 | – | – | – | NC1=Nc2ccc(-c3cnc4ccccc4c3)cc2CN1CCNC(=O)C12CC3CC(CC(C3)C1)C2 [Compound 672] |
| 34 | <30 | <30 | – | – | – | CCCC(=O)NCCN1Cc2cc(-c3cnc4ccccc4c3)ccc2N=C1N [Compound 673] |
| 42 | 75 | 90 | – | – | – | NC1=Nc2ccc(-c3ccccc3F)cc2CN1CCNC(=O)CCC(F)(F)F [Compound 680] |
| 39 | 77 | 97 | – | – | – | NC1=Nc2ccc(-c3ccccc3Cl)cc2CN1CCNC(=O)CCC(F)(F)F [Compound 682] |
| 64 | 86 | – | – | – | – | CC(CC(=O)NCCN1Cc2cc(-c3ccccc3Cl)ccc2N=C1N)C(F)(F)F (stereo not shown) [Compound 683] |
| 50 | 90 | – | – | – | – | CC(CC(=O)NCCN1Cc2cc(-c3ccccc3)ccc2N=C1N)C(F)(F)F (stereo not shown) [Compound 685] |
| <30 | 36 | 81 | – | – | – | NC1=Nc2ccc(-c3ccccc3F)cc2CN1CCNC(=O)C1CCC(C(F)(F)F)CC1 (stereo not shown) [Compound 688] |

Further lines, the compound ahead of its results:

| SMILES | % Inhibition (FS) (0.3 μM test compound) [%] | % Inhibition (FS) (1 μM test compound) [%] | % Inhibition (FS) (3 μM test compound) [%] | % Inhibition (FS) (0.3 μM test compound, 0.3 µM) [%] | % Inhibition (FS) (1 μM test compound, 1 µM) [%] | % Inhibition (FS) (3 μM test compound, 3 µM) [%] |
| --- | --- | --- | --- | --- | --- | --- |
| CCCCCC(CCC(=O)NC1CCCCC1)N1Cc2cc(Oc3ccccc3)ccc2N=C1N (stereo not shown) [Compound 149] | 32 | 71 | 111 | – | – | – |
| NC1=Nc2ccc(Oc3ccccc3)cc2CN1CCNC(=O)C1(c2ccc(Cl)cc2)CCCC1 [Compound 196] | 65 | 96 | 120 | – | – | – |
| COc1ccc(C(CCC(=O)N(C)C2CCCCC2)N2Cc3cc(Oc4ccccc4)ccc3N=C2N)cc1 (stereo not shown) [Compound 298] | <30 | 75 | 110 | – | – | – |
| CC(C)C(CNC(=O)C12CC3CC(CC(C3)C1)C2)N1Cc2cc(Oc3ccccc3)ccc2N=C1N (stereo not shown) [Compound 562] | 106 | 118 | 128 | – | – | – |
| CCCCC(CC)C(=O)NCCN1Cc2cc(-c3ccccc3C)ccc2N=C1N (stereo not shown) [Compound 662] | 66 | 97 | – | – | – | – |
| NC1=Nc2ccc(-c3ccc4ccccc4c3)cc2CN1CCNC(=O)C1CCC1 [Compound 663] | <30 | <30 | <30 | – | – | – |
| NC1=Nc2ccc(-c3ccc4ccccc4c3)cc2CN1CCNC(=O)C1CCCC1 [Compound 664] | <30 | <30 | <30 | – | – | – |
| NC1=Nc2ccc(-c3ccc4ccccc4c3)cc2CN1CCNC(=O)C12CC3CC(CC(C3)C1)C2 [Compound 665] | 35 | <30 | <30 | – | – | – |
| CC(C)(C)C(=O)NCCN1Cc2cc(-c3ccc4ccccc4c3)ccc2N=C1N [Compound 667] | 33 | <30 | <30 | – | – | – |
| CC(C)CCC(=O)NCCN1Cc2cc(-c3ccc4ccccc4c3)ccc2N=C1N [Compound 668] | <30 | <30 | <30 | – | – | – |
| CCCCC(CC)C(=O)NCCN1Cc2cc(-c3ccc4ccccc4c3)ccc2N=C1N (stereo not shown) [Compound 669] | <30 | <30 | 32 | – | – | – |
| NC1=Nc2ccc(-c3cnc4ccccc4c3)cc2CN1CCNC(=O)C1CCC1 [Compound 670] | <30 | <30 | 44 | – | – | – |
| CC(C)(C)C(=O)NCCN1Cc2cc(-c3cnc4ccccc4c3)ccc2N=C1N [Compound 674] | 36 | <30 | 41 | – | – | – |
| CC(C)CCC(=O)NCCN1Cc2cc(-c3cnc4ccccc4c3)ccc2N=C1N [Compound 675] | 35 | <30 | <30 | – | – | – |
| CCCCC(CC)C(=O)NCCN1Cc2cc(-c3cnc4ccccc4c3)ccc2N=C1N (stereo not shown) [Compound 676] | 33 | <30 | 44 | – | – | – |
| Cc1ccccc1-c1ccc2c(c1)CN(CCNC(=O)CCC(F)(F)F)C(N)=N2 [Compound 678] | 51 | 88 | 99 | – | – | – |
| Cc1ccccc1-c1ccc2c(c1)CN(CCNC(=O)CC(C)C(F)(F)F)C(N)=N2 (stereo not shown) [Compound 679] | 78 | 99 | – | – | – | – |
| CC(CC(=O)NCCN1Cc2cc(-c3ccccc3F)ccc2N=C1N)C(F)(F)F (stereo not shown) [Compound 681] | 67 | 100 | – | – | – | – |
| NC1=Nc2ccc(-c3ccccc3)cc2CN1CCNC(=O)CCC(F)(F)F [Compound 684] | 33 | 38 | 78 | – | – | – |
| NC1=Nc2ccc(-c3ccc4ccccc4c3)cc2CN1CCNC(=O)CCC(F)(F)F [Compound 686] | <30 | 73 | 80 | – | – | – |
| NC1=Nc2ccc(-c3ccccc3F)cc2CN1CCNC(=O)C1CCOCC1 [Compound 687] | <30 | 50 | 87 | – | – | – |
| NC1=Nc2ccc(-c3ccccc3Cl)cc2CN1CCNC(=O)C1CCOCC1 [Compound 689] | 33 | 82 | – | – | – | – |
| NC1=Nc2ccc(-c3ccccc3Cl)cc2CN1CCNC(=O)C1CCC(C(F)(F)F)CC1 (stereo not shown) [Compound 690] | <30 | <30 | 52 | – | – | – |
| CC(=O)N1CCC(C(=O)NCCN2Cc3cc(-c4ccccc4Cl)ccc3N=C2N)CC1 [Compound 691] | <30 | <30 | 51 | – | – | – |
